In US11466032B2, “Cytotoxic agents” (FEMTOGENIX LIMITED, priority 2017, dated 2022):

What was measured:
SW48 = assay: MTT cytotoxicity assay, 72 hour incubation; assay type: cell-based
Protocol: (§1) The cytotoxicity of compounds 26, 34, 50,58 and 68 were evaluated in a variety of cell lines using the standard MTT assay for a 72 hour incubation period (Table 1).
(§2) Tumor cell lines were maintained in RPMI1640 medium supplemented with 10% heat-inactivated fetal bovine serum, 2 mM L-glutamine and 1 mM sodium pyruvate. 1800 cells per well were seeded in a volume of 180 μl in a 96-well flat bottom polystyrene plate. The cells were allowed to adhere overnight at 37° C. in a CO2 incubator. Ligands were initially formulated in DMSO, and stocks stored at −80° C. They were then further formulated at lox concentration in RPMI1640 medium. 20 ul of diluted samples were added into each treatment well. On each plate, blank wells with no cells, and untreated wells containing cells, were included. Plates were then cultured at 37° C. in a CO2 incubator for 72 hrs. Cytotoxicity was evaluated using a tetrazolium salt-based assay, the MT assay. After 72 hours, the supernatant was removed from each well and 200 μl of a sterile filtered 500 μg/ml MT solution in water added to each well. The plates were then incubated at 37° C. in a CO2 incubator for 4 hrs. The supernatant was then removed and the formazan crystals formed solubilized by adding 150 μl of DMSO to each well. The plate was then read on a plate reader at 540 nm, and percentage cell survival calculated as follows: ((mean absorbance treated wells at concentration x—mean absorbance blank wells)÷(mean absorbance untreated wells at concentration x—mean absorbance blank wells))×100. Data were plotted as concentration in nM vs. % cell survival in Microsoft Excel, and IC50 values (concentration where cell survival is reduced by a half) were determined from the graph.

LIM 1215 = assay: MTT cytotoxicity assay, 72 hour incubation; assay type: cell-based
Protocol: as §1, §2

SW 620 = assay: MTT cytotoxicity assay, 72 hour incubation; assay type: cell-based
Protocol: as §1, §2

SK-BR-3 = assay: MTT cytotoxicity assay, 72 hour incubation; assay type: cell-based; conditions: Homo sapiens, 3 runs
Protocol: as §1, §2

MCF-7 = assay: MTT cytotoxicity assay, 72 hour incubation; assay type: cell-based; conditions: Homo sapiens, MCF7, 3 runs
Protocol: as §1, §2

ZR 75-1 = assay: MTT cytotoxicity assay, 72 hour incubation; assay type: cell-based; conditions: Homo sapiens, 3 runs
Protocol: as §1, §2

[1] = tested on: HexA and MS1 DNA fragments; assay: DNA footprinting; assay type: binding; conditions: X is any base, Y is G or C, W is A or T; overnight incubation
Protocol: The sequence selectivity of 26 and 34 was investigated using a modification of the previously established DNA footprinting assay^25. Following an overnight incubation of the ligand-DNA complexes, the mixture was mixed with strand separation buffer containing 10 mM EDTA, 10 mM NaOH, 0.1% bromophenol blue, 80% formamide and incubated at 100° C. for 3 min. The mixture was then immediately cooled on ice and run on an 8% denaturing gel.
Footprinting reactions were performed as previously described^[5] using the DNA fragments HexA and HexB, which together contain all 64 symmetrical hexanucleotide sequences^[6], and MS1 that contains all possible […] tetranucleotide sequences^[7]. The DNA fragments were obtained by cutting the parent plasmids with HindIII and SacI (for HexA and MS1) or EcoRI and PstI (for HexB), and were labelled at the 3′-end of the HindIII or EcoRI sites with [α-^32P]dATP using reverse transcriptase or exo-Klenow fragment. After gel purification, the radiolabelled DNA was dissolved in 10 mM Tris-HCl pH 7.5 containing 0.1 mM EDTA, at a concentration of about 10 c.p.s per μL as determined on a hand held Geiger counter. 1.5 μL of radiolabelled DNA was mixed with 1.5 μL ligand that had been freshly diluted in 10 mM Tris-HCl pH 7.5, containing 10 mM NaCl. […]

[2] = tested on: linear 32P-end-labelled TyrT DNA; assay: DNA interstrand cross-linking assay (denaturing polyacrylamide gel); assay type: biochemical; conditions: overnight incubation at 37° C.
Protocol: The ability of 26 and 34 to cross-link DNA was determined using an assay involving linear double-stranded HexA. TyrT and MS1 DNA fragments (FIG. 5).
Following denaturation conditions (treatment with formamide and heating at 65° C. for 5 min) the DNA strands were completely separated (see control C2, FIG. 6). The presence of an interstrand cross-link holds the denatured strands in close proximity, and cross-linked adducts therefore run as double-stranded DNA on polyacrylamide gel. Talirine and 34 were tested at >10 different concentrations, and the assay was repeated twice. […] C1 and C2 represent controls where C1 is DNA without formic acid, and C2 is DNA without formic acid, but heated thereby forming single strands. Cross-links are clearly detectable at concentrations as low as 10 nM. Using the same assay, the PBD dimer Talirine was also shown to cross-link DNA down to a concentration of 10 nM (FIG. 7).
The preparation of the DNA fragments (FIG. 5) has been previously described^[4]. Briefly, the sequence which had been cloned into the BamHI site of pUC18 was obtained by cutting with HindIII and EcoRI. Radiolabelled DNA fragments were prepared by filling in the 3′-end of the HindIII site with [α-^32P]dATP using Klenow DNA polymerase (exo-).
The radiolabelled DNA fragment was separated from the remainder of the plasmid DNA on a 6% non-denaturing polyacrylamide gel. […]

Molecule | IC50 (SW48; Homo sapiens, SW48, 3 runs) [pM] | IC50 (LIM 1215; LIM1215, 3 runs) [pM] | IC50 (SW 620; Homo sapiens, SW-620, 3 runs) [pM] | IC50 (SK-BR-3) [pM] | IC50 (MCF-7) [pM] | IC50 (ZR 75-1) [pM] | general code of the footprints (preferred binding sites) [1] | IC50 (SW48; 3 runs) [pM] | IC50 (LIM 1215; 3 runs) [pM] | IC50 (SW 620; 3 runs) [pM] | lowest concentration at which DNA is cross-linked [2] [nM]
COc1cc2c(cc1OCc1cccc(COc3cc4c(cc3OC)C(=O)N3CC=C(c5ccsc5)C[C@H]3C=N4)n1)N=C[C@@H]1CC(c3ccsc3)=CCN1C2=O [Compound 58, (6aS,6a′S)-3,3′-((Pyridine-2,6-diylbis(methylene))bis(oxy))bis(2-methoxy-8-(thiophen-3-yl)-7,10-dihydrobenzo[e]pyrido[1,2-α][1,4]diazepin-12(6aH)-one)] | 8.6 | 23 | 92 | – | – | – | – | – | – | – | –
COc1ccc(C2=CCN3C(=O)c4cc(OC)c(OCc5cccc(COc6cc7c(cc6OC)C(=O)N6CC=C(c8ccc(OC)cc8)C[C@H]6C=N7)n5)cc4N=C[C@@H]3C2)cc1 [Compound 26, (6aS,6a′S)-3,3′-((Pyridine-2,6-diylbis(methylene))bis(oxy))bis(2-methoxy-8-(4-methoxyphenyl)-7,10-dihydrobenzo[e]pyrido[1,2-α][1,4]diazepin-12(6aH)-one)] | 6 | 6 | 5 | 6 | 6 | 5 | XYWWYWYX | – | – | – | –
COc1cc2c(cc1OCc1cccc(COc3cc4c(cc3OC)C(=O)N3CC=C(c5cncnc5)C[C@H]3C=N4)n1)N=C[C@@H]1CC(c3cncnc3)=CCN1C2=O [Compound 50, (6aS,6a′S)-3,3′-((Pyridine-2,6-diylbis(methylene))bis(oxy))bis(2-methoxy-8-(pyrimidin-5-yl)-7,10-dihydrobenzo[e]pyrido[1,2-α][1,4]diazepin-12(6aH)-one)] | 3.1 | 3.7 | 1350 | – | – | – | – | – | – | – | –
COc1cc2c(cc1OCc1cccc(COc3cc4c(cc3OC)C(=O)N3CC=C(c5cccs5)C[C@H]3C=N4)n1)N=C[C@@H]1CC(c3cccs3)=CCN1C2=O [Compound 68, (6aS,6a′S)-3,3′-((Pyridine-2,6-diylbis(methylene))bis(oxy))bis(2-methoxy-8-(thiophen-2-yl)-7,10-dihydrobenzo[e]pyrido[1,2-α][1,4]diazepin-12(6aH)-one)] | 12 | 13 | 30 | – | – | – | – | – | – | – | –
Talirine [reference compound] | – | – | – | – | – | – | – | 3 | 434 | 17 | 10
